Our source for the T/C values is PubChem BioAssay AID248 (DTP/NCI, 2004).

The test concerns L1210 leukemia ip in BDF1 mice, survival T/C. The test is described as follows: NCI In Vivo Anticancer Drug Screen. Data for tumor model L1210 Leukemia (intraperitoneal) in B6D2F1 (BDF1) mice. The following applies: endpoint: mean survival time, higher = longer survival. In a few lines:
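Antitumor effect is assessed in tumor-bearing animals. Survival in the compound arm is compared with a vehicle-dosed control arm and expressed as their quotient.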

Where [1] appears, read: dose: 100.0 mg/kg/injection, schedule: Q04DX003 (ip), vehicle: Klucel (hydroxypropylcellulose) (HPC).
[2] abbreviates: dose: 200.0 mg/kg/injection, schedule: Q04DX003 (ip), vehicle: Klucel (hydroxypropylcellulose) (HPC).
[3] abbreviates: dose: 400.0 mg/kg/injection, schedule: Q04DX003 (ip), vehicle: Klucel (hydroxypropylcellulose) (HPC).
Setting [4] is: dose: 100.0 mg/kg/injection, schedule: Q04DX002 (ip), vehicle: saline with Tween-80.
The mark [5] stands for this setting: dose: 200.0 mg/kg/injection, schedule: Q04DX002 (ip), vehicle: saline with Tween-80.
Setting [6] is: dose: 400.0 mg/kg/injection, schedule: Q04DX002 (ip), vehicle: saline with Tween-80.
The mark [7] stands for this setting: dose: 100.0 mg/kg/injection, schedule: Q01DX001 (ip), vehicle: saline.
Setting [8] is: dose: 200.0 mg/kg/injection, schedule: Q01DX001 (ip), vehicle: saline.
Where [9] appears, read: dose: 100.0 mg/kg/injection, schedule: Q01DX009 (ip), vehicle: Klucel (hydroxypropylcellulose) (HPC).
Setting [10] is: dose: 200.0 mg/kg/injection, schedule: Q01DX009 (ip), vehicle: Klucel (hydroxypropylcellulose) (HPC).
Where [11] appears, read: dose: 400.0 mg/kg/injection, schedule: Q01DX009 (ip), vehicle: Klucel (hydroxypropylcellulose) (HPC).
Where [12] appears, read: dose: 100.0 mg/kg/injection, schedule: Q01DX009 (ip), vehicle: saline sonified.
The mark [13] stands for this setting: dose: 100.0 mg/kg/injection, schedule: Q04DX003 (ip), vehicle: saline sonified.
The mark [14] stands for this setting: dose: 100.0 mg/kg/injection, schedule: Q04DX002 (ip), vehicle: Klucel (hydroxypropylcellulose) (HPC).
Setting [15] is: dose: 200.0 mg/kg/injection, schedule: Q04DX002 (ip), vehicle: Klucel (hydroxypropylcellulose) (HPC).
The mark [16] stands for this setting: dose: 400.0 mg/kg/injection, schedule: Q04DX002 (ip), vehicle: Klucel (hydroxypropylcellulose) (HPC).

Values joined by “and” are separate entries in the source; they are usually repeats but may differ in a detail not shown here. Equal entries are not always repeated. Toxic doses and inconclusive results are not listed.

As for `CC1(C)C2CCC1(C)C(c1ccc(O)cc1)C2` (stereo unspecified), the T/C under setting [1] is 104 % of control, the T/C under setting [2] was 101 % of control and the T/C under setting [3] is 102 % of control.

With `CCOC(=O)C1CC1(C)c1ccccc1` (stereo unspecified), the T/C under setting [4] was 97 % of control, the T/C under setting [5] is 93 % of control and the T/C under setting [6] was 90 % of control.

For the compound `CC(=O)/C(=C/c1ccccc1)N=P(c1ccccc1)(c1ccccc1)c1ccccc1`, the T/C is 90 % of control (dose: 50.0 mg/kg/injection, schedule: Q04DX003 (ip), vehicle: saline); 87 % of control under setting [7]; 92 % of control (dose: 100.0 mg/kg/injection, schedule: Q04DX003 (ip), vehicle: saline); 89 % of control under setting [8]; 90 % of control (dose: 200.0 mg/kg/injection, schedule: Q04DX003 (ip), vehicle: saline).

On to `CCOC(=O)NP(=O)(NC1CCCCC1)NC1CCCCC1`, for which the T/C (dose: 50.0 mg/kg/injection, schedule: Q01DX001 (ip), vehicle: alcohol) is 92 % of control; the T/C (dose: 100.0 mg/kg/injection, schedule: Q01DX001 (ip), vehicle: alcohol) is 96 % of control; the T/C (dose: 200.0 mg/kg/injection, schedule: Q01DX001 (ip), vehicle: alcohol) is 90 % of control.

In the case of `Cc1ccc(S(=O)(=O)N(C)c2cc(Cl)c(C(=O)O)c(Cl)c2)cc1`, the T/C under setting [1] is 96 % of control, the T/C under setting [2] was 105 % of control and the T/C under setting [3] is 97 % of control.

On to `Cc1cc2nc3c(nc2cc1C)-c1ccccc1C3=O`, for which the T/C is, setting by setting: (dose: 100.0 mg/kg/injection, schedule: Q01DX009 (ip), vehicle: saline with Tween-80) 117 % of control; (dose: 200.0 mg/kg/injection, schedule: Q01DX009 (ip), vehicle: saline with Tween-80) 101 % of control; (dose: 400.0 mg/kg/injection, schedule: Q01DX009 (ip), vehicle: saline with Tween-80) 97 % of control.

With `CNC(=O)Nc1ccc(OC)cc1`, the T/C runs as follows: under setting [9], 96 % of control; under setting [1], 110 % of control; under setting [10], 100 % of control; under setting [2], 107 % of control; under setting [11], 102 % of control; under setting [3], 105 % of control.

On to `Cc1cc(C)c(NC(=O)N(CCCl)N=O)c(C)c1`, for which the T/C was 155 % of control (dose: 11.25 mg/kg/injection, schedule: Q01DX001 (ip), vehicle: other); 150 % of control (dose: 15.0 mg/kg/injection, schedule: Q01DX001 (ip), vehicle: other); 174 % of control (dose: 16.0 mg/kg/injection, schedule: Q01DX001 (ip), vehicle: other); 203 % of control (dose: 20.0 mg/kg/injection, schedule: Q01DX001 (ip), vehicle: other); 234 % of control (dose: 22.5 mg/kg/injection, schedule: Q01DX001 (ip), vehicle: other); 166 % of control (dose: 25.0 mg/kg/injection, schedule: Q01DX001 (ip), vehicle: other). For the same compound, the T/C is, setting by setting: (dose: 30.0 mg/kg/injection, schedule: Q01DX001 (ip), vehicle: other) 191 % of control; (dose: 31.0 mg/kg/injection, schedule: Q01DX001 (ip), vehicle: other) 165 % of control; (dose: 38.0 mg/kg/injection, schedule: Q01DX001 (ip), vehicle: other) 201 % of control; (dose: 45.0 mg/kg/injection, schedule: Q01DX001 (ip), vehicle: other) 252 % of control and 322 % of control; (dose: 57.0 mg/kg/injection, schedule: Q01DX001 (ip), vehicle: other) 262 % of control; (dose: 62.0 mg/kg/injection, schedule: Q01DX001 (ip), vehicle: other) 217 % of control. Further, the T/C was 227 % of control (dose: 86.0 mg/kg/injection, schedule: Q01DX001 (ip), vehicle: other) and 100 % of control (dose: 90.0 mg/kg/injection, schedule: Q01DX001 (ip), vehicle: other).

Consider `CCOC(=O)C(Cl)c1ccc(OC)cc1` (stereo unspecified), for which the T/C (dose: 100.0 mg/kg/injection, schedule: Q01DX009 (ip), vehicle: other) is 111 % of control; the T/C (dose: 200.0 mg/kg/injection, schedule: Q01DX009 (ip), vehicle: other) is 98 % of control; the T/C (dose: 400.0 mg/kg/injection, schedule: Q01DX009 (ip), vehicle: other) was 102 % of control.

In the case of `CC(O)(C(=O)O)C(O)C(O)CO` (stereo unspecified), the T/C is 100 % of control under setting [4], 88 % of control under setting [5] and 100 % of control under setting [6].

As for `N#Cc1cnn2c(=O)[nH]cnc12`, the T/C is, setting by setting: under setting [12], 95 % of control; under setting [13], 93 % of control; (dose: 200.0 mg/kg/injection, schedule: Q01DX009 (ip), vehicle: saline sonified) 91 % of control; (dose: 200.0 mg/kg/injection, schedule: Q04DX003 (ip), vehicle: saline sonified) 101 % of control; (dose: 400.0 mg/kg/injection, schedule: Q04DX003 (ip), vehicle: saline sonified) 95 % of control.

`Nc1ncnc2nc(I)[nH]c12`: the T/C reads like this: under setting [7], 93 % of control; under setting [8], 98 % of control.

Turning to `CCCCCS(=O)(=O)N(CC)CC`, the T/C is 96 % of control under setting [4], 96 % of control under setting [5] and 89 % of control under setting [6].

`Nc1cc(NC(=O)c2ccc(Cl)cc2)ccc1S(=O)(=O)O`: the T/C runs as follows: under setting [4], 104 % of control; under setting [5], 93 % of control; under setting [6], 93 % of control.

As for `CCOC(=O)N/N=C(\C)c1ccc(OC)cc1`, the T/C under setting [9] was 98 % of control and the T/C under setting [10] was 112 % of control.

As for `CCCCCCCCCC(=O)NC(=S)Nc1ccc(Br)cc1`, the T/C is, setting by setting: (dose: 100.0 mg/kg/injection, schedule: Q01DX001 (ip), vehicle: Klucel (hydroxypropylcellulose) (HPC)) 93 % of control; under setting [9], 93 % of control and 98 % of control; under setting [14], 98 % of control and 91 % of control; under setting [1], 92 % of control; (dose: 200.0 mg/kg/injection, schedule: Q01DX001 (ip), vehicle: Klucel (hydroxypropylcellulose) (HPC)) 91 % of control; under setting [10], 91 % of control. For the same compound, the T/C is 96 % of control and 88 % of control under setting [15]; 94 % of control under setting [2]; 94 % of control (dose: 400.0 mg/kg/injection, schedule: Q01DX001 (ip), vehicle: Klucel (hydroxypropylcellulose) (HPC)); 96 % of control and 88 % of control under setting [16]; 102 % of control under setting [3].

As to `CCOC(=O)c1ccc(N(CC(N)O)S(=O)(=O)c2ccc(C)cc2)cc1` (stereo unspecified), the T/C is 96 % of control (dose: 12.5 mg/kg/injection, schedule: Q01DX009 (ip), vehicle: saline with Tween-80); 98 % of control (dose: 25.0 mg/kg/injection, schedule: Q01DX009 (ip), vehicle: saline with Tween-80); 98 % of control (dose: 50.0 mg/kg/injection, schedule: Q01DX009 (ip), vehicle: saline with Tween-80).

Turning to `O=C1NCN(c2ccccc2)C12CCNCC2`, the T/C was 108 % of control (dose: 25.0 mg/kg/injection, schedule: Q01DX009 (ip), vehicle: saline sonified); 89 % of control (dose: 25.0 mg/kg/injection, schedule: Q04DX003 (ip), vehicle: saline with Tween-80); 98 % of control (dose: 50.0 mg/kg/injection, schedule: Q01DX009 (ip), vehicle: saline sonified); 94 % of control (dose: 50.0 mg/kg/injection, schedule: Q04DX003 (ip), vehicle: saline with Tween-80); 103 % of control under setting [12]; 95 % of control under setting [13]. Also, for the setting “dose: 100.0 mg/kg/injection, schedule: Q04DX003 (ip), vehicle: saline with Tween-80”, the T/C was 89 % of control.

`CCCCOP(=O)(/C=C/c1ccc(NC(C)=O)cc1)OCCCC`: the T/C under setting [14] is 104 % of control, the T/C under setting [15] was 96 % of control and the T/C under setting [16] is 89 % of control.

For the compound `O=C(NCCNC(=O)Nc1ccc(Cl)cc1)Nc1ccc(Cl)cc1`, the T/C is, setting by setting: under setting [9], 96 % of control; under setting [1], 98 % of control; under setting [10], 94 % of control; under setting [2], 93 % of control; under setting [11], 91 % of control; under setting [3], 92 % of control.
